Data reported in patent publication US9737073B2, “Herbicidal weed control from combinations of fluroxypyr and ALS inhibitors” (Dow AgroSciences LLC, priority 2014, dated 2017).

What was measured:
Assay type in all cases: in vivo
[1] = test system: Commelina benghalensis (tropical spiderwort, COMBE); experiment: Postemergence herbicidal weed control, fluroxypyr-meptyl and diclosulam, greenhouse trials (Table 1)
Description: (§1) Field trials were conducted using standard herbicide small plot research methodology. Plots varied from 3×3.3 meter (m) to 4.5×10 m (width×length) with 4 replicates per treatment. The crops used in the field trials were grown using normal cultural practices for land preparation, fertilization, seeding and maintenance to ensure good growth of the crop and the weeds.
(§2) All treatments in the field trials were applied using either pressurized air or carbon dioxide (CO2) backpack or bicycle sprayers calibrated to apply 100-187 L/ha spray volume. Flat Fan spray nozzles were used in all trials, with water as the diluent applied at 275-300 kilopascals (kPa). Weed sizes at application ranged from 10 to 40 cm tall. Commercially available products of fluroxypyr-meptyl (STARANE™, 180 and 333 g ae/L EC), diclosulam (SPIDER® 84WG), and thifensulfuron-methyl (HARMONY® 75WG) were mixed in water at appropriately formulated product rates to achieve the desired rates based on a unit area of application (hectare) to achieve the desired rates as shown. No adjuvants were tank-mixed with any treatments applied in the field trials. Treatments were rated at 14-26 days after application as compared to the untreated control plants. Visual weed control was scored on a scale of 0 to 100 percent where 0 corresponds to no injury and 100 corresponds to complete kill.
(§3) The treated plots and control plots were rated blind at various intervals after application. Ratings were reported on a Percent (%) Visual Control basis, where 0 corresponds to no visual effect/weed control and 100 corresponds to complete kill of the target weeds.
(§4) Colby's equation was used to determine the herbicidal effects expected from the mixtures (Colby, S. R. Calculation of the synergistic and antagonistic response of herbicide combinations. Weeds 196715, 20-22). A t-test (alpha=0.05) between Colby predictions and observed combinations was used to test for significant differences indicating synergy or antagonism. The results presented in the Tables were significant according to the described criteria.
(§5) The following equation was used to calculate the expected activity of mixtures containing two active ingredients, A and B: Expected=A+B−(A×B/100) • A=observed efficacy of active ingredient A at the same concentration as used in the mixture; • B=observed efficacy of active ingredient B at the same concentration as used in the mixture.

[2] = test system: Abutilon theophrasti (velvetleaf, ABUTH); experiment: Postemergence herbicidal weed control, fluroxypyr-meptyl and chlorimuron-ethyl, field trials (Table 3)
Description: (§6) Seeds of the desired test plant species were planted in a peat-based potting soil, Metro-Mix 360® in plastic pots with a surface area of 128 square centimeters (cm^2). Metro-Mix 360® consists of formulated Canadian sphagnum peat moss, coarse perlite, bark ash, a starter nutrient charge (with gypsum), a slow-release nitrogen and dolomitic limestone. The plants were grown for 7-19 days in a greenhouse with an approximate 14-hour (h) photoperiod which was maintained at about 29° C. during the day and 26° C. during the night. Nutrients and water were added on a regular basis and supplemental lighting was provided with overhead metal halide 1000-Watt lamps as necessary. The plants were treated with postemergence foliar applications when they reached the third to fourth true leaf stage. All treatments were applied using a randomized complete block trial design, with 4 replications per treatment.
(§7) Treatments consisted of the compounds as listed in Tables 1 to 4, each compound applied alone and in combination. Commercially formulated products of fluroxypyr-meptyl (STARANE™, 333 grams acid equivalent per liter (g ae/L) EC), diclosulam (SPIDER® 84WG), cloransulam-methyl (FIRSTRATE™ 84WG), chlorimuron-ethyl (CLASSIC® 25WG) and thifensulfuron-methyl (HARMONY® 50SG). Formulated amounts of fluroxypyr-meptyl, diclosulam, cloransulam-methyl, chlorimuron-ethyl and thifensulfuron-methyl were placed in 60 milliliter (mL) glass vials and dissolved in a volume of 30 or 60 mL of a water solution containing Agri-dex crop oil concentrate in a 1% volume per volume (v/v) ratio. Compound requirements are based upon either a 30- or a 60-mL application volume at a rate of 200 liters per hectare (L/ha). Spray solutions of the mixtures were prepared by adding the stock solutions to the appropriate amount of dilution solution to form either a 30- or a 60-mL spray solution with active ingredients in single and two-way combinations. Formulated compounds were applied to the plant material with an overhead Generation III Research Sprayer manufactured by DeVries Manufacturing in Hollandale, Minn., USA. The track sprayer was equipped with an 8003E nozzle calibrated to deliver 200 L/ha at a spray height of 18 inches (43 centimeters (cm)) above average plant canopy.
(§8) The treated plants and untreated control plants were placed in a greenhouse as described above and watered by sub-irrigation to prevent wash-off of the test compounds.
(§9) Treatments were rated at 7 to 21 days after application (DAA) as compared to the untreated control plants. Visual weed control was scored on a scale of 0 to 100 percent where 0 corresponds to no injury and 100 corresponds to complete kill.
as §1
as §2, with “Visual weed control was scored on a scale of 0 to 100 percent where 0 corresponds to no injury and 100 corresponds to complete kill.” left out

[3] = test system: Amaranthus rudis Sauer (common waterhemp, AMATA); experiment: as above
Description: as §6, §7, §8, §9, §1
as §2, with “Visual weed control was scored on a scale of 0 to 100 percent where 0 corresponds to no injury and 100 corresponds to complete kill.” left out

[4] = test system: Amaranthus retroflexus L. (redroot pigweed, AMARE); experiment: Postemergence herbicidal weed control, fluroxypyr-meptyl and thifensulfuron-methyl, field trials (Table 4); conditions: 21DAA1, 17.5 g ae/ha
Description: as §1, §2, §3, §4, §5

[5] = test system: Chenopodium album (common lambsquarters, CHEAL); experiment: as above; conditions: 21DAA1, 17.5 g ae/ha
Description: as §1, §2, §3, §4, §5

[6] = test system: Polygonum convolvulus L. (wild buckwheat, POLCO); experiment: as above; conditions: 21DAA1, 17.5 g ae/ha
Description: as §1, §2, §3, §4, §5

Compound: CCCCCCC(C)OC(=O)COc1nc(F)c(Cl)c(N)c1Cl (stereo not drawn) [Fluroxypyr-meptyl, fluroxypyr-methylheptyl ester]
- Fluroxypyr-meptyl Mean % weed control ([1]; 14DAA1, 200 g ae/ha): 27.5%
- Fluroxypyr-meptyl Mean % weed control ([1]; 26DAA1, 200 g ae/ha): 25.0%
- Fluroxypyr-meptyl Mean % weed control ([2]; 14DAA1, 50 g ae/ha): 67.0%
- Fluroxypyr-meptyl Mean % weed control ([2]; 14DAA1, 100 g ae/ha): 80.8%
- Fluroxypyr-meptyl Mean % weed control ([3]; 7DAA1, 25 g ae/ha): 25.0%
- Fluroxypyr-meptyl Mean % weed control ([3]; 14DAA1, 25 g ae/ha): 7.5%
- Fluroxypyr-meptyl Mean % weed control [4]: 3.8%
- Fluroxypyr-meptyl Mean % weed control [5]: 3.8%
- Fluroxypyr-meptyl Mean % weed control [6]: 2.5%
